pIC50: −log10 of the molar value.
Target: PFKFB4 (Homo sapiens (Human), UniProt Q16877)
Assay: PFKFB4 kinase activity, Method B (ADP-Glo Kinase Assay)
Format: biochemical
From the text: The PFKFB3 (placenta form) and PFKFB4 were produced and purified to homogeneity from E. coli at Biovitrum and at Sprint Bioscience. All other reagents were purchased from commercial sources. Two independent methods have been used for determination of the kinase activity of PFKFB3 (Method A and Method B). Method B has been used for determination of the kinase activity of PFKFB4.
Method B: The kinase activity of the bi-functional enzyme is readily quantified based on the production of ADP and F-2,6-P2 from ATP and F6P. The ADP is detected with a kit, ADP-Glo™ Kinase Assay^(a-e), from Promega. The assay is a luminescent ADP detection assay that measures kinase activity by quantifying the amount of ADP produced during the kinase reaction. The assay is performed in two steps; first, after the kinase reaction, an equal volume of ADP-Glo™ Reagent is added to terminate the kinase reaction and deplete the remaining ATP. Second, the Kinase Detection Reagent is added to simultaneously convert ADP to ATP and allow the newly synthesized ATP to be measured using a luciferase/luciferine reaction. The light generated is measured using a luminescence counter (1450 MicroBeta TriLux).
The assay was performed in white 384-well microtiter plates (OptiPlate, 6007299, PerkinElmer) by consecutive additions of 0.1 μL of a test compound solution (serial diluted in DMSO from compound DMSO stock solution and dispensed by acoustic dispensing from UV-star 384-well plate 7360153, VWR), 5 μL of enzyme solution and 5 μL of a substrate (fructose-6-phosphate (F6P) and adenosine-5′-triphosphate (ATP)) containing solution. […] Four reference dose response curves, one of them being the QC compound, were included in row O1-2, P1-2, and serial diluted as the test compounds. The final concentrations of all reagents in a total assay volume of 10.1 μL per well were: • 50 mM Tris-HCl at pH 8.0 • 10 mM MgCl2 • 5 mM Na2HPO4 at pH 8.0 • 81.48 nM PFKFB3 or 145 nM PFKFB4 • 8 μM ATP • 100 μM F6P (acid treated and then neutralized to remove any contaminating F-2,6-P2; see Van Schaftingen, 1984) • 0.005% Tween-20 • 1 mM dithiothreitol (DTT) • A test compound at various concentrations or controls (final DMSO concentration 0.99%)
Enzyme, compounds and controls were pre-incubated at room temperature for 15 min before the addition of substrate solution. The enzymatic reaction was allowed to proceed for 20 min (PFKFB3) or 40 min (PFKFB4) at room temperature. The reaction was terminated by the addition of 10 μL of ADP-Glo™ Reagent to all wells and the plate was incubated for 40 min at room temperature. After addition of 20 μL Kinase Detection Reagent to all wells the plate was incubated for 30 min at room temperature, followed by measurement in 1450 MicroBeta TriLux. All plates were centrifuged after each addition (room temperature, short spin, 500 RPM, Megafuge 1.0 Heraeus Instruments).
The inhibitory potency or IC50 values of test compounds on the kinase activity of PFKFB3 or PFKFB4 were calculated using a four-parameter model (model 205) in XLfit (IDBS ActivityBase XE Runner).

PFKFB4, sequence (Q16877 whole entry): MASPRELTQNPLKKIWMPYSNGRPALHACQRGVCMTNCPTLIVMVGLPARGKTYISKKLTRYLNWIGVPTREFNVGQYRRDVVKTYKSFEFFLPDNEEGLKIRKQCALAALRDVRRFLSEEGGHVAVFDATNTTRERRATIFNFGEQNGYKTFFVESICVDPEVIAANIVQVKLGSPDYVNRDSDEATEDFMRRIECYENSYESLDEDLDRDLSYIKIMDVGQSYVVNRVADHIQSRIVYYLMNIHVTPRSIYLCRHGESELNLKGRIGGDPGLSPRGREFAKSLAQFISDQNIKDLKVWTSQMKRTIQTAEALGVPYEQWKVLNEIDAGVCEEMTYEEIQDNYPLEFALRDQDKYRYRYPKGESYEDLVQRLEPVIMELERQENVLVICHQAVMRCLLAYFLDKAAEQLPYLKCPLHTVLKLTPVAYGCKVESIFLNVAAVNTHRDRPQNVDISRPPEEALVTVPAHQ

Compound | pIC50
Cc1c(S(=O)(=O)Nc2cccc(C(=O)O)c2)sc2ccc(Cl)cc12 [Example 38, 3-{[(5-Chloro-3-methyl-1-benzothien-2-yl)sulfonyl]amino}benzoic acid] | 6.89
Cc1c(S(=O)(=O)Nc2cccc(C(=O)O)c2)sc2ccc(C(C)C)cc12 [Example 5, 3-{[(5-Isopropyl-3-methyl-1-benzothien-2-yl)sulfonyl]amino}benzoic acid] | 7.22
